# From publication PMC7076440, “New Preclinical Development of a c-Met Inhibitor and Its Combined Anti-Tumor Effect in c-Met-Amplified NSCLC” (Pharmaceutics, 2020)
# Legend:
# [1] = design: method as in doi:10.1016/j.dmpk.2016.10.205; details: rats; cited from earlier work
# [2] = Equilibrium solubility at different pHs and excipients by HPLC; format: physicochemical; details: thermodynamic from solid
# Experimental: Solutions at pH values of 1 to 12 were prepared using HCl and NaOH. At first, 10^−1 N, 10^−2 N, 10^−3 N, 10^−4 N, 10^−5 N, and 10^−6 N of HCl and NaOH solutions were prepared and their pH values were measured with a pH meter (Metrohm 827 pH lab, Zurich, Switzerland). One milliliter of the 10^−4 N, 10^−5 N, and 10^−6 N of HCl and NaOH solutions was withdrawn and diluted in a 100 mL flask for more coordination. In each prepared solution (n = 3), excess ABN401 was dissolved and mixed for 24 h. All samples were centrifuged for 1 min at 12,000 rpm. The pH solubility of ABN401 was analyzed by HPLC and the pKa was determined by plotting a graph of log(solubility) against pH.
# An HPLC system (Shimadzu LC-20, Shimadzu, Kyoto, Japan) was used to analyze the solubility, dissolution profile, and degradation products as well as to determine the storage stability of ABN401. The wavelength of the UV detector was set at 282 nm. For quantification analysis, the Agilent Eclipse Plus C18 (5 μm, 4.6 × 150 mm) (Agilent technologies, Santa Clara, CA, USA) was used and maintained at 30 °C. The mobile phase was a mixture of acetonitrile and 50 mM acetate buffer at pH 5.0 at a volume ratio of 50 to 50 (v/v %). The flow rate of the mobile phase was 0.5 mL/min and the injection volume was 10 μL. A Kromasil C8 (5 μm, 4.6 × 250 mm) column was used for qualification analysis to observe the impurity profile during the storage stability test. The following gradient was applied: 0–20 min, 80% acetonitrile and 20% acetate buffer to 20% acetonitrile and 80% acetate buffer, maintained up to 25 min; 25– 28 min, back to 80% acetonitrile and 20% acetate buffer, maintained up to 35 min. The flow rate of the mobile phase was 1 mL/min and the injection volume was 10 μL.
# The solubility of ABN401 in two different acidic buffers (i.e., acetate and citrate) were analyzed at three different pH values: 4.0, 4.5, and 5.0 (Table 2). […] Different concentrations of PEG400, cremophor EL, and polysorbate 80 were also evaluated as co-solvents to ABN401 in 0.1 M acetate buffer at pH 4.0 to investigate the solubility enhancement. […] Therefore, 20% PEG400 in 0.1 M sodium acetate was selected as an oral gavage formulation and intravenous solution for in vivo studies. A short storage stability test was performed for 8 days in a cold chamber to determine the concentration recovery yields at low and high concentrations, which were 0.03 mg/mL and 133 mg/mL, respectively. […] As a result, pH 4.0 yielded the highest percentage recovery in both low and high concentrations (Table 3).
compound,measurement,setting,value
CN1CCN(Cc2ccc(-c3cnc(N4CCOC(Cn5nnc6ncc(-c7cnn(C)c7)nc65)C4)nc3)cc2)CC1 (centres unmarked) [ABN401],absolute bioavailability,[1],45%
same,solubility at 24 h,"[2]; 20% PEG 400 in 0.1 M acetate buffer, aqueous with cosolvent or surfactant or cyclodextrin, PEG 400 (20 %), co-solvent in 0.1 M acetate buffer pH 4.0",8010 µg/mL
same,solubility at 24 h,"[2]; 40% PEG 400 in 0.1 M acetate buffer, aqueous with cosolvent or surfactant or cyclodextrin, PEG 400 (40 %), co-solvent in 0.1 M acetate buffer pH 4.0",8800 µg/mL
same,solubility at 24 h,"[2]; 60% PEG 400 in 0.1 M acetate buffer, aqueous with cosolvent or surfactant or cyclodextrin, PEG 400 (60 %), co-solvent in 0.1 M acetate buffer pH 4.0",9480 µg/mL
same,solubility at 24 h,"[2]; 80% PEG 400 in 0.1 M acetate buffer, aqueous with cosolvent or surfactant or cyclodextrin, PEG 400 (80 %), co-solvent in 0.1 M acetate buffer pH 4.0",12600 µg/mL
same,solubility at 24 h,"[2]; aqueous buffer, 0.1 M acetate buffer (pH 4.0)",7140 µg/mL
same,solubility at 24 h,"[2]; aqueous buffer, 0.1 M acetate buffer (pH 4.5)",2290 µg/mL
same,solubility at 24 h,"[2]; aqueous buffer, 0.1 M acetate buffer (pH 5.0)",560 µg/mL
same,solubility at 24 h,"[2]; aqueous buffer, 0.1 M citrate buffer (pH 4.0)",60 µg/mL
same,solubility at 24 h,"[2]; aqueous buffer, 0.1 M citrate buffer (pH 4.5)",30 µg/mL
same,solubility at 24 h,"[2]; aqueous buffer, 0.1 M citrate buffer (pH 5.0)",20 µg/mL
same,solubility at 24 h,"[2]; aqueous buffer, 1× PBS (pH 7.4)",10 µg/mL
same,solubility at 24 h,"[2]; hydrochloric acid solution, aqueous buffer, Hydrochloric (pH 2.5)",26000 µg/mL
same,solubility at 24 h,"[2]; hydrochloric acid solution, aqueous buffer, Hydrochloric (pH 5.0)",3920 µg/mL
same,solubility at 24 h,"[2]; organic solvent or mixture, Cremophor EL (100 %)",14100 µg/mL
same,solubility at 24 h,"[2]; organic solvent or mixture, PEG 400 (100 %)",15500 µg/mL
same,solubility at 24 h,"[2]; organic solvent or mixture, Polysorbate 80 (100 %)",8460 µg/mL
